Here are results for eight molecules from patent US20240148821A1, “PHARMACEUTICAL USE OF CYCLIC PEPTIDE COMPOUND” (CHUGAI SEIYAKU KABUSHIKI KAISHA, priority 2021, published 2024).

The structures appear in SMILES notation. Numbered stars: 1 amine (or outer) side, 2 acyl side, 3 side chain; on linkers, the order of the positions; unused ones are H or OH. Bridge positions count the residues as written; N and C are the ends. Square brackets hold non-standard residues; d marks the D form. Peptide text beside a SMILES is read from it. * marks the point of attachment. hPhe(3-Cl-4-CF3) = N[C@@H](CCc1ccc(C(F)(F)F)c(Cl)c1)C(=O)O; hPhe(3-F,4-CF3) = N[C@@H](CCc1ccc(C(F)(F)F)c(F)c1)C(=O)O; NMePhe(4-CF3) = CN[C@@H](Cc1ccc(C(F)(F)F)cc1)C(=O)O; 3Oxa8azabicyclo(3.2.1)octane = C1CC2COCC1N2*; NMeAbu(4,4,4-F3) = CN[C@@H](CC(F)(F)F)C(=O)O; NMePhe(4-Cl) = CN[C@@H](Cc1ccc(Cl)cc1)C(=O)O; NMePhe(4-Me) = CN[C@@H](Cc1ccc(C)cc1)C(=O)O; NMedβ3hAla = C[C@H](CC(=O)[*:2])N(C)[*:1]; NMeGly(cPent) = CN[C@H](C(=O)O)C1CCCC1; X26 = CC(C)=CC[C@H](N[*:1])C(=O)[*:2]; NMeCha = CN[C@@H](CC1CCCCC1)C(=O)O; Hyp = O=C(O)[C@@H]1C[C@@H](O)CN1; NMeChg = CN[C@H](C(=O)O)C1CCCCC1; NMeI = CC[C@H](C)[C@H](NC)C(=O)O; NMeD = CN[C@@H](CC(=O)O)C(=O)O; NMeL = CN[C@@H](CC(C)C)C(=O)O; NMeV = CN[C@H](C(=O)O)C(C)C; NMeA = CN[C@@H](C)C(=O)O; NMeAib = CNC(C)(C)C(=O)O; Piperidide = C1CCN(*)CC1; Pyrrolidide = C1CCN(*)C1; Ac5c = NC1(C(=O)O)CCCC1; Aze = O=C(O)[C@@H]1CCN1; NEtG = CCNCC(=O)O; Sar = CNCC(=O)O

The target in experiment [1] is protein-protein interaction between Kras and SOS1 (biotin-tagged human Kras loaded with GDP, His-tagged human SOS1) (Homo sapiens (Human), UniProt P01116, G12D). As to the kind of experiment: Protein-protein interaction inhibition between Kras and SOS1 (KrasG12D-SOS PPI) using AlphaScreen.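 Also: kras produced in E. coli, Ni-coupled donor beads and streptavidin acceptor beads, excitation 680 nm with emission detected at 520–620 nm via singlet oxygen transfer.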 It is filed as biochemical. Particulars: AlphaScreen; biotin-tagged human Kras loaded with GDP, His-tagged human SOS1; read-out: KRAS G12D-SOS PPI IC50. In general terms: Bead proximity is the source of the signal in Alpha formats.

In experiment [2] the test system is Human pancreatic cancer cell line AsPC-1 (G12D mutation Kras). As to the kind of experiment: AsPC-1 cell growth inhibition (AsPC-1 CGI). It is filed as cell-based. The conditions noted are these: read-out: AsPC-1 cell growth inhibition, 50% growth inhibitory concentration (IC50 value); 96 hours, CellTiter-Glo, values classified in ranges. In general terms: In ATP-based viability assays light output follows the ATP content of the culture.
Method: Test compounds were serially dilated with dimethyl sulfoxide, and 200 nL was then dispensed to a U-bottom 96-well plate using Labcyte Echo. […] The cell suspension was dispensed to a. plate containing a test compound at 100 μL per well and incubated at 37° C. in a 5% carbon dioxide gas incubator. 96 hours later, 80 μL of CellTiter-Glo (Promega) was added to each well and fluorescence was measured.

For `CC(C)C[C@@H]1NC(=O)C(C)(C)N(C)C(=O)[C@H](CC(C)C)NC(=O)[C@H](CCc2ccc(C(F)(F)F)c(F)c2)NC(=O)CN(C)C(=O)[C@H](Cc2ccc(Cl)cc2)N(C)C(=O)CN(C)C(=O)CN(C)C(=O)[C@H](C(C)C)NC(=O)[C@H](CC(C)C)N(C)C(=O)C[C@@H](C)N(C)C1=O` [Compound 956] (cyclo(L[NMeAib]L[NMedβ3hAla][NMeL]V[Sar][Sar][NMePhe(4-Cl)][Sar][hPhe(3-F,4-CF3)])), the IC50 in experiment [1] was 80 nM; in experiment [2], greater than 500 nM.

With `CC[C@H](C)[C@@H]1NC(=O)[C@H](CC(C)C)N(C)C(=O)C[C@@H](C(=O)N2CCCC2)N(C)C(=O)[C@H]([C@@H](C)CC)N(C)C(=O)C2(CCCC2)NC(=O)[C@@H]2CCCN2C(=O)[C@H](CCc2ccc(C(F)(F)F)c(Cl)c2)NC(=O)CN(C)C(=O)[C@H](Cc2ccc(C(F)(F)F)cc2)N(C)C(=O)[C@@H]2CCN2C(=O)[C@H](C)N(C)C1=O` [Compound 882] ([NMeL]I[NMeA][Aze][NMePhe(4-CF3)][Sar][hPhe(3-Cl-4-CF3)]P[Ac5c][NMeI][NMeD]-Pyrrolidide; lactam N-11), the IC50 is 0.47 nM in experiment [1] and no more than 20 nM in experiment [2].

On to `CCO[C@@H]1C[C@H]2C(=O)NC3(CCCC3)C(=O)N(C)[C@@H](C3CCCCC3)C(=O)N(C)[C@H](C(=O)N3CCCC3)CC(=O)N(C)[C@@H](CC(F)(F)F)C(=O)N[C@@H]([C@@H](C)CC)C(=O)N(C)CC(=O)N(C)CC(=O)N(C)[C@@H](Cc3ccc(C)cc3)C(=O)N(C)CC(=O)N[C@@H](CCc3ccc(C(F)(F)F)c(Cl)c3)C(=O)N2C1` [Compound 1339] ([NMeAbu(4,4,4-F3)]I[Sar][Sar][NMePhe(4-Me)][Sar][hPhe(3-Cl-4-CF3)][Hyp](Et)[Ac5c][NMeChg][NMeD]-Pyrrolidide; lactam N-11), for which the IC50 in experiment [1] is 0.57 nM; in experiment [2], no more than 20 nM.

Turning to `CC[C@H](C)[C@@H]1NC(=O)[C@H](CC(C)C)N(C)C(=O)C[C@@H](C(=O)N2CCCCC2)N(C)C(=O)[C@H](C(C)C)N(C)C(=O)C2(CCCC2)NC(=O)[C@H](C)N(C)C(=O)[C@H](CCc2ccc(C(F)(F)F)c(Cl)c2)NC(=O)CN(C)C(=O)[C@H](CC2CCCCC2)N(C)C(=O)CN(C)C(=O)CN(C)C1=O` [Compound 939] ([NMeL]I[Sar][Sar][NMeCha][Sar][hPhe(3-Cl-4-CF3)][NMeA][Ac5c][NMeV][NMeD]-Piperidide; lactam N-11), the IC50 in experiment [1] is 8 nM; in experiment [2] it was greater than 500 nM.

`CCO[C@@H]1C[C@H]2C(=O)NC3(CCCC3)C(=O)N(C)[C@@H]([C@@H](C)CC)C(=O)N(C)[C@H](C(=O)N3CCCC3)CC(=O)N(C)[C@@H](CC(C)C)C(=O)N[C@@H]([C@@H](C)CC)C(=O)N(C)[C@@H](C)C(=O)N3CC[C@H]3C(=O)N(C)[C@@H](Cc3ccc(C(F)(F)F)cc3)C(=O)N(C)CC(=O)N[C@@H](CCc3ccc(C(F)(F)F)c(Cl)c3)C(=O)N2C1` [Compound 1335] ([NMeL]I[NMeA][Aze][NMePhe(4-CF3)][Sar][hPhe(3-Cl-4-CF3)][Hyp](Et)[Ac5c][NMeI][NMeD]-Pyrrolidide; lactam N-11): the figures for the IC50 in experiment [1] and in experiment [2] were 0.49 nM and no more than 20 nM, respectively.

Consider `CC(C)=CC[C@@H]1NC(=O)[C@H](CC(C)C)N(C)C(=O)C[C@@H](C(=O)N2CCCCC2)N(C)C(=O)[C@H](C(C)C)N(C)C(=O)C2(CCCC2)NC(=O)[C@@H]2CCCN2C(=O)[C@H](CCc2ccc(C(F)(F)F)c(Cl)c2)NC(=O)CN(C)C(=O)[C@H](CC2CCCCC2)N(C)C(=O)[C@@H]2CCN2C(=O)[C@H](C)N(C)C1=O` [Compound 729] ([NMeL][X26][NMeA][Aze][NMeCha][Sar][hPhe(3-Cl-4-CF3)]P[Ac5c][NMeV][NMeD]-Piperidide; lactam N-11), for which the IC50 in experiment [1] is 43 nM; in experiment [2], greater than 500 nM.

`CC[C@H](C)[C@@H]1NC(=O)[C@H](CC(C)C)N(C)C(=O)C[C@@H](C(=O)N2C3CCC2COC3)N(C)C(=O)[C@H](C2CCCC2)N(C)C(=O)C2(CCCC2)NC(=O)[C@@H]2CCCN2C(=O)[C@H](CCc2ccc(C(F)(F)F)c(Cl)c2)NC(=O)CN(C)C(=O)[C@H](CC2CCCCC2)N(C)C(=O)[C@@H]2CCN2C(=O)[C@H](C)N(C)C1=O` [Compound 973] ([NMeL]I[NMeA][Aze][NMeCha][Sar][hPhe(3-Cl-4-CF3)]P[Ac5c][NMeGly(cPent)][NMeD]-{3Oxa8azabicyclo(3.2.1)octane}; lactam N-11): the IC50 was 2.8 nM in experiment [1] and no more than 20 nM in experiment [2].

As for `CC[C@H](C)[C@@H]1NC(=O)[C@H](CC(C)C)N(C)C(=O)C[C@@H](C(=O)N2CCCCC2)N(C)C(=O)[C@H](C(C)C)N(C)C(=O)C2(CCCC2)NC(=O)[C@@H]2CCCN2C(=O)[C@H](CCc2ccc(C(F)(F)F)c(Cl)c2)NC(=O)CN(CC)C(=O)[C@H](CC2CCCCC2)N(C)C(=O)[C@@H]2CCN2C(=O)[C@H](C)N(C)C1=O` [Compound 1276] ([NMeL]I[NMeA][Aze][NMeCha][NEtG][hPhe(3-Cl-4-CF3)]P[Ac5c][NMeV][NMeD]-Piperidide; lactam N-11), the IC50 in experiment [1] is 17 nM; in experiment [2] it was greater than 500 nM.
